≈ marks a conversion by molar mass, not a printed value. Entries after “also recorded” stand apart in the source; their conditions may differ.
Assays:
ecdysone receptor [1] = settings: cited from earlier work
[2] = tested on: EGFP-Kir2.1 fusion protein under ecdysone promoter control (VgEcR/RXR); experiment: Induction of reporter genes in primary rat anterior pituitary cells after adenovirus-mediated gene transfer; type: cell-based; settings: 24 hours, single-cell microfluorimetry
Excerpt: Anterior pituitary glands were removed from female Sprague-Dawley rats, enzymatically dissociated, and plated onto No. 1 polylysine-coated glass coverslips for culturing as previously described (Ho et al. 1995). The cells were doubly infected with one adenovirus (AdVgRXR) that allows constitutive expression of a modified ecdysone receptor (VgEcR) and the retinoid X receptor (RXR) and a second adenovirus (AdGFIRK) that places under ecdysone promoter control the expression of a fusion protein between EGFP and a potassium channel of the inward rectifier family (Kir2.1). For infection, the adenoviruses were applied at 200 pfu's per cell in infection medium for 3-5 hours. The cells were then allowed to recover for 24 hours before being treated with ecdysoids (ponasterone A, NSE-1) or solvent vehicle for 24 hours.
After induction, cells were then randomly chosen through a phase-contrast view and EGFP expression in each chosen cell was monitored by single-cell microfluorimetry. Because the EGFP-Kir2.1 fusion protein should be targeted to the plasma membrane, we expect its presence in the plasma membrane as well as in the Golgi-as the images in FIG. 5 indeed illustrate. A quantitative summary of the microfluorimetric data is shown in FIG. 6 (note break in y-axis scale; N shown at the base of each bar). […]

Aqueous solubility = type: physicochemical; settings: aqueous KCl/HEPES buffer, 100 mM KCl, 10 mM K · HEPES, pH 7.4
mice = experiment: Toxicity in animals (intraperitoneal injections); type: in vivo; settings: 8 mice, 32.5 mg/ml suspension, six 200-μl aliquots at 12-hour intervals
Protocol: NSE-1 was suspended (32.5 mg/ml) in carrier vehicle consisting of 15% w/v Pluronic F127 surfactant (BASF Corp., Wyandotte, Mich.) and 3% v/v dimethylsulfoxide in phosphate buffered saline (PBS, pH 7). […] These observations give at least preliminary data showing that NSE-1 is not acutely toxic to mammals.
NSE-1 was suspended (32.5 mg/ml) in vehicle consisting of 15% w/v Pluronic F127 surfactant (BASF Corp., Wyandotte, Mich.) and 3% v/v dimethylsulfoxide in phosphate buffered saline (PBS, pH 7).

[3] = tested on: EGFP reporter gene under ecdysone promoter control in NIH3T3-ER cells; experiment: Induction of reporter gene expression in transiently-transfected cells; type: cell-based; settings: 30 μM, 48 hours, single-cell microfluorimetry, NIH3T3-ER cells with pEGSH-EGFP
Protocol: NIH3T3-ER cells were transiently transfected with a plasmid pEGSH-GFP carrying the reporter eGFP gene under ecdysone promoter control. The transfected cells were treated with 10 μM ponasterone A, or 30 μM NSE-1, or plain medium for 48 hours and then screened for induction of eGFP expression by single-cell microfluorimetry.
NIH3T3-ER cells, in which expression of a modified ecdysone receptor and the retinoid X co-receptor are driven by the CMV promoter, were transiently transfected with the pEGSH-EGFP plasmid using FuGene 6 transfection reagent. The transfected cells were treated with 30 μM NSE-1 or vehicle for 48 hours and then screened for induction of EGFP expression by single-cell microfluorimetry.

NIH3T3-ER fibroblasts = experiment: Toxicity in cell culture (CyQuant DNA quantification); type: cell-based; settings: 48 hours
Protocol: Cellular toxicity of NSE-1 was tested in cell culture. NIH3T3-ER fibroblasts (Stratagene, La Jolla, Calif.) were seeded into 96-well plates, allowed to attach for 24 hours in DMEM supplemented with 10% v/v fetal bovine serium (FBS). The medium was then replaced with DMEM-10 FBS containing ecdysoid drugs or solvent vehicle, and the cells were allowed to grow for 48 hours, at the end of which the cells were lysed and the amount of DNA in each well quantified through the CyQuant assay (Molecular Probes, Inc. Eugene, Oreg.).
Cellular toxicity of NSE-1 was tested in cell culture. NIH3T3-ER fibroblasts (Stratagene) were seeded into 96-well plates, allowed to attach for 24 hours in DMEM supplemented with 10% v/v fetal bovine serum (FBS). The medium was then replaced with DMEM-10% FBS containing ecdysoid drugs or solvent vehicle. Ethanol and DMSO were vehicle controls for ponasterone A and NSE-1, respectively. The cells were allowed to grow for 48 hours, at the end of which the cells were permeabilized and the amount of DNA in each well quantified with the CyQuant assay (Molecular Probes). […] The data are summarized in FIG. 1 (each measurement is the mean of 6 wells).

ecdysone receptor [4] = experiment: Activation of the ecdysone-regulable gene expression system; type: cell-based, D. melanogaster
Excerpt: The ecydysone-regulable gene expression system relies on a recombinant ecdysone receptor (VgEcR), which is an N-terminal truncation of the natural ecdysone receptor from D. melanogaster fused to the activation domain of VP16 from HSV; VgEcR also bears 3 point mutations in the P box of the DNA-binding domain of EcR to resemble that of the glucocorticoid receptor (GR) to allow recognition of a synthetic ecdysone-response element (E/GRE), which consists of inverted half-site recognition elements for the retinoid X receptor (RXR) and GR DNA-binding domains. The hybrid E/GRE sequence is designed to evade recognition by any endogenous nuclear receptors. With RXR, the vertebrate homologue of Drosophila ultraspiracle (Yao et al. 1992), VgEcR forms a heterodimer that binds to E/GRE and initiates transcription. The ecdysone-inducible expression system has very low basal expression (No et al. 1996), because the presence of ecdysoid hormones is obligatory for receptor heterodimerization and DNA binding (Yao et al. 1993). Finally, ecdysoid hormones have no known corresponding bioactivity in vertebrates, presumably because there are no processes homologous to molting.
That these ecdysone analogues are steroids presents the same chemical obstacle to caging as did mifepristone. Fortunately, however, members of the bisacylhydrazine family are potent activators of the ecdysone receptor, and they are accessible by facile organic synthetic routes. As shown in Preliminary Studies, we have successfully synthesized a non-steroidal ecdysoid (NSE) from this class of compounds. […] Furthermore, because non-steroidal mimics of ecdysoid molting hormone have been of great interest to the agrichemical business, the acute toxicity, mutagenicity, carcinogenicity, and teratogenicity of the bisacylhydrazine family of NSEs have been extensively tested since the compounds were serendipitously discovered as ecdysone mimetics in 1983 (see Dhadialla et al. 1998 and references therein).

| Compound | activation of the ecdysone receptor (ecdysone receptor [1]) | induction of expression of the EGFP-Kir2.1 fusion protein [2] | solubility (Aqueous solubility) [µM] | signs of intoxication (mice) | induction of EGFP expression [3] | growth capacity of the cells (amount of DNA, CyQuant) (NIH3T3-ER fibroblasts; 10 μM) | growth capacity of the cells (amount of DNA, CyQuant) (NIH3T3-ER fibroblasts; 30 μM) | growth capacity of the cells (amount of DNA, CyQuant) (NIH3T3-ER fibroblasts; 100 μM) | activity in inducing expression of reporter genes under ecdysone promoter control, relative to ponasterone A (ecdysone receptor [4]) | concentrations required for activating the ecdysone system (ecdysone receptor [4]) |
| --- | --- | --- | --- | --- | --- | --- | --- | --- | --- | --- |
| CC(C)(O)CC[C@@H](O)[C@](C)(O)[C@H]1CC[C@@]2(O)C3=CC(=O)[C@@H]4C[C@@H](O)[C@@H](O)C[C@]4(C)[C@H]3CC[C@]12C [20-hydroxy-ecdysone] | moderately activated | – | – | – | – | – | – | – | – | – |
| CCc1c(OC)cccc1C(=O)NN(C(=O)c1cc(C)cc(C)c1)C(C)(C)C [NSE-1, 1-(3,5-dimethylbenzoyl)-1-tert-butyl-2-(2-ethyl-3-methoxybenzoyl)hydrazine] | – | can strongly induce expression | 47 (≈ 18 µg/mL) | did not produce any signs of intoxication | efficacy of NSE-1 in inducing transgenes in cultured cell lines; also recorded: can induce EGFP reporter expression | Neither Ponasterone A at 10 μM, nor NSE-1 at 10, 30 or 100 μM significantly affected the growth capacity of the cells | Neither Ponasterone A at 10 μM, nor NSE-1 at 10, 30 or 100 μM significantly affected the growth capacity of the cells | Neither Ponasterone A at 10 μM, nor NSE-1 at 10, 30 or 100 μM significantly affected the growth capacity of the cells | as active as ponasterone A | in the μM range |
| CC(C)CC[C@@H](O)[C@](C)(O)[C@H]1CC[C@@]2(O)C3=CC(=O)[C@@H]4C[C@@H](O)[C@@H](O)C[C@]4(C)[C@H]3CC[C@]12C [Ponasterone A, reference compound] | much more robustly activated | can strongly induce expression | – | – | – | Neither Ponasterone A at 10 μM, nor NSE-1 at 10, 30 or 100 μM significantly affected the growth capacity of the cells | – | – | – | in the μM range |
| CC(C)CC[C@@H](O)[C@](C)(O)[C@H]1CC[C@@]2(O)C3=CC(=O)[C@]4(O)C[C@@H](O)[C@@H](O)C[C@]4(C)[C@H]3[C@H](O)C[C@]12C [muristerone A] | much more robustly activated | – | – | – | – | – | – | – | – | – |
